Measurements: patent US4397842A, “Peptides having thymopoietin-like activity” (Ortho Pharmaceutical Corporation, priority 1981, dated 1983)
Non-standard residues stand in square brackets, D forms with d. Residues, ends and D or L forms follow the SMILES beside them. Sar = CNCC(=O)O

Experiments:
[1] = tested on: CR^- B cell precursors; experiment: induction in vitro of CR+ B cell differentiation from CR- B cell precursors; assay type: cell-based, nu/nu mice; settings: same concentrations as for T cell induction
Protocol: (§1) To determine the activity and characteristics of the polypeptide of Example I, determinations were carried out on healthy 5-6 week nu/nu mice of both sexes, the mice being bred on a BALB/c background (thymocytes expressing Thy-1.2 surface antigen) and maintained under conventional conditions. For the antisera, anti Thy-1.2 sera were prepared in Thy-1 congenic mice.
(§2) For the induction in vitro of Thy-1^+ T cells or CR^+ B cell differentiation, the induction of thymocyte differentiation from prothymocytes in vitro was performed as described by Komuro and Boyse, (Lancet, 1, 740, 1973), using the acquisition of Thy-1.2 as a marker of T cell differentation. The induction of CR^+ B cell differentiation from CR^- B cell precursors in vitro was performed under similar conditions using as the assay criterion, the capacity of CR^+ B cells to bind sheep erythrocytes coated with subagglutinating quantities of rabbit antibody and nonlytic complement. Spleen cell populations from healthy nu/nu mice fractionated on discontinuous bovine serum albumin gradients were used as the source of both precursor types (Thy-1^- and CR^-) because they have few or no Thy-1^+ cells and low numbers of CR^+ cells.

[2] = tested on: prothymocytes; experiment: induction in vitro of Thy-1+ T cell differentiation (Komuro and Boyse), acquisition of Thy-1.2 as marker; assay type: cell-based, nu/nu mice; settings: for biological activity compared with the pentapeptide prepared in Example I: qualitative statement
Protocol: as §1, §2

Structure (SMILES)	induction of differentiation of CR+ B cells [1]	biological activity compared with the pentapeptide prepared in Example I [2]	concentration at which peptide is active ([2]; assay of Example II)
CC(C)[C@H](NC(=O)[C@H](CC(=O)O)NC(=O)CN(C)C(=O)[C@@H](N)CCCNC(=N)N)C(=O)N[C@@H](Cc1ccc(O)cc1)C(=O)O [Example I, H--ARG--SAR--ASP--VAL--TYR--OH] (H-R[Sar]DVY-OH)	did not induce	–	–
CN(CC(=O)N[C@@H](Cc1ccc(O)cc1)C(=O)O)C(=O)[C@H](CC(=O)O)NC(=O)[C@H](CCCCN)NC(=O)[C@@H](N)CCCNC(=N)N [Example IVC, H--ARG--LYS--ASP--SAR--TYR--OH] (H-RKD[Sar]Y-OH)	–	same biological activity	–
CC(C)[C@H](NC(=O)[C@H](CC(=O)O)NC(=O)[C@@H](C)NC(=O)[C@@H](N)CCCNC(=N)N)C(=O)N[C@@H](Cc1ccc(O)cc1)C(=O)O [III, H--ARG--D--ALA--ASP--VAL--TYR--OH] (H-R[dA]DVY-OH)	–	same biological activity	–
CN(CC(=O)N[C@@H](Cc1ccc(O)cc1)C(=O)O)C(=O)[C@H](CC(=O)O)NC(=O)CN(C)C(=O)[C@@H](N)CCCNC(=N)N [IVA, H--ARG--SAR--ASP--SAR--TYR--OH] (H-R[Sar]D[Sar]Y-OH)	–	same biological activity	–
CN(CC(=O)N[C@@H](Cc1ccc(O)cc1)C(N)=O)C(=O)[C@H](CC(=O)O)NC(=O)CN(C)C(=O)[C@@H](N)CCCNC(=N)N [IVB, H--ARG--SAR--ASP--SAR--TYR--NH2] (H-R[Sar]D[Sar]Y-NH2)	–	same biological activity	0.1 pg/mL
